Here are results for 32 compounds from US20130344026A1, “Dimeric Smac Mimetics” (priority 2009, published 2013).

In the first assay the test system is HCC461. The assay is described as follows: cell viability assay in HCC461, compound alone. The note with it: HCC461, HCC461; Tables 6-9; read-out: IC50 (μM) in cell viability assay in HCC461. It is filed as cell-based.
By IC50 is commonly meant the concentration needed to halve the response being measured. Consider `CN[C@@H](C)C(=O)N[C@H](C(=O)N1CC[C@H](NC(=O)c2cccc(C(=O)N[C@H]3C[C@@H](C(=O)N[C@@H]4CCCc5ccccc54)N(C(=O)[C@@H](NC(=O)[C@H](C)NC)C(C)(C)C)C3)c2)C1)C(C)(C)C` [Compound 131], for which the IC50 is 0.642 µM. On the same count and under the same terms, for `CN[C@@H](C)C(=O)N[C@H](C(=O)N1C[C@@H](NC(=O)c2cccc(C(=O)N[C@H]3C[C@@H](C(=O)N[C@H](C)C(C)C)N(C(=O)[C@@H](NC(=O)[C@H](C)NC)C(C)(C)C)C3)c2)C[C@H]1C(=O)N[C@@H]1CCCc2ccccc21)C(C)(C)C` [Compound 132] the value was 0.017 µM; for `CN[C@@H](C)C(=O)N[C@H](C(=O)N1C[C@@H](NC(=O)c2cccc(C(=O)N[C@H]3C[C@@H](C(=O)N[C@@H]4CCCc5ccccc54)N(C(=O)[C@@H](NC(=O)[C@H](C)NC)C(C)(C)C)C3)c2)C[C@H]1C(=O)N[C@H](C)C(C)C)C(C)C` [Compound 133], 0.016 µM. `CN[C@@H](C)C(=O)N[C@@H](CCCCNC(=O)c1cccc(C(=O)N[C@H]2C[C@@H](C(=O)N[C@@H]3CCCc4ccccc43)N(C(=O)[C@@H](NC(=O)[C@H](C)NC)C(C)(C)C)C2)c1)C(=O)N1CCC[C@H]1C(=O)N[C@@H]1CCCc2ccccc21` [Compound 134]: the IC50 came out at 0.058 µM. In the case of `CN[C@@H](C)C(=O)N[C@@H](CCCCNC(=O)c1cccc(C(=O)N[C@H]2CCN(C(=O)[C@@H](NC(=O)[C@H](C)NC)C(C)(C)C)C2)c1)C(=O)N1CCC[C@H]1C(=O)N[C@@H]1CCCc2ccccc21` [Compound 135], the IC50 came out at 12.1 µM. Same read-out and setting: for `CN[C@@H](C)C(=O)N[C@@H](C(C)C)C(C)N[C@@H](CNC(=O)c1cccc(C(=O)N[C@H]2C[C@@H](C(=O)N[C@@H]3CCCc4ccccc43)N(C(=O)[C@@H](NC(=O)[C@H](C)NC)C(C)(C)C)C2)c1)C(=O)N[C@H](C)C(C)C` (some centres unmarked) [Compound 136] the value was greater than 30 µM. For the compound `CC[C@H](NC(=O)[C@H](C)NC)C(C)N[C@@H](CNC(=O)c1cccc(C(=O)N[C@H]2C[C@@H](C(=O)N[C@@H]3CCCc4ccccc43)N(C(=O)[C@@H](NC(=O)[C@H](C)NC)C(C)(C)C)C2)c1)C(=O)N[C@H](C)C(C)C` (some centres unmarked) [Compound 137], the half-maximal inhibitory concentration (IC50) worked out at 6.97 µM.

`CN[C@@H](C)C(=O)N[C@H](C(=O)N1C[C@@H](NC(=O)c2cccc(C(=O)NCC[C@@H](NC(=O)[C@H](NC(=O)[C@@H](C)NC)C(C)C)C(=O)N[C@@H](C)C(C)C)c2)C[C@H]1C(=O)N[C@@H]1CCCc2ccccc21)C(C)(C)C` [Compound 138]: the IC50 is greater than 30 µM. For the compound `CN[C@@H](C)C(=O)N[C@H](C(=O)N1C[C@@H](NC(=O)c2cccc(C(=O)NCC[C@@H](NC(=O)[C@H](NC(=O)[C@H](N)CO)C(C)C)C(=O)N[C@@H](C)C(C)C)c2)C[C@H]1C(=O)N[C@@H]1CCCc2ccccc21)C(C)(C)C` [Compound 139], the IC50 stood at 0.849 µM. In the case of `CCC[C@H](NC(=O)[C@H](C)NC)C(=O)N1C[C@@H](NC(=O)c2cccc(C(=O)N[C@H]3C[C@@H](C(=O)N[C@@H]4CCCc5ccccc54)N(C(=O)[C@@H](NC(=O)[C@H](C)NC)C(C)(C)C)C3)c2)C[C@H]1C(=O)N[C@H](C)C(C)C` [Compound 140], the IC50 stood at 0.28 µM. Take `CCC[C@H](NC(=O)[C@H](C)NC)C(=O)N1C[C@@H](NC(=O)c2cccc(C(=O)N[C@H]3C[C@@H](C(=O)N[C@@H]4CCCc5ccccc54)N(C(=O)[C@@H](NC(=O)[C@H](C)NC)C(C)(C)C)C3)c2)C[C@H]1C(=O)N1CCCCC1` [Compound 141]: the IC50 was 0.109 µM. In the case of `CN[C@@H](C)C(=O)N[C@@H](CCCCNC(=O)c1cccc(C(=O)NCCCC[C@H](NC(=O)[C@H](C)NC)C(=O)N2CCCC[C@H]2C(=O)N[C@@H]2CCCc3ccccc32)c1)C(=O)N1CCCC[C@H]1C(=O)N[C@@H]1CCCc2ccccc21` [Compound 142], the IC50 was greater than 30 µM. Consider `CN[C@@H](C)C(=O)N[C@@H](CCCCNC(=O)c1cccc(C(=O)N[C@H]2C[C@@H](C(=O)N[C@@H]3CCCc4ccccc43)N(C(=O)[C@@H](NC(=O)[C@H](C)NC)C(C)(C)C)C2)c1)C(=O)N1CCCC[C@H]1C(=O)N[C@@H]1CCCc2ccccc21` [Compound 143], for which the IC50 turned out to be 0.027 µM. `CN[C@@H](C)C(=O)N[C@@H](CCCCNC(=O)c1cccc(C(=O)N[C@H]2C[C@@H](C(=O)N[C@@H]3CCCc4ccccc43)N(C(=O)[C@@H](NC(=O)[C@H](C)NC)C(C)(C)C)C2)c1)C(=O)N1CC=C[C@H]1C(=O)N[C@@H]1CCCc2ccccc21` [Compound 144]: the IC50 was determined as 0.043 µM. Consider `CN[C@@H](C)C(=O)N[C@H](C(=O)N[C@H]1C[C@@H](C(=O)N[C@@H]2CCCc3ccccc32)N(C(=O)[C@@H](NC(=O)[C@H](C)NC)C(C)(C)C)C1)C(C)(C)C` [Compound 145], for which the IC50 is greater than 30 µM.

`CN[C@@H](C)C(=O)N[C@@H](C)C(=O)N[C@H]1C[C@@H](C(=O)N[C@@H]2CCCc3ccccc32)N(C(=O)[C@@H](NC(=O)[C@H](C)NC)C(C)(C)C)C1` [Compound 146]: the IC50 is greater than 30 µM.

For the compound `CN[C@@H](C)C(=O)N[C@@H](CCC(=O)O)C(=O)N1C[C@@H](NC(=O)c2cccc(C(=O)N[C@H]3C[C@@H](C(=O)N[C@@H]4CCCc5ccccc54)N(C(=O)[C@@H](NC(=O)[C@H](C)NC)C(C)(C)C)C3)c2)CC1C(=O)N[C@H](C)c1ccccc1` (some centres unmarked) [Compound 147], the IC50 turned out to be 0.185 µM. In the case of `CN[C@@H](C)C(=O)N[C@@H](CCC(=O)O)C(=O)N1C[C@@H](NC(=O)c2cccc(C(=O)N[C@H]3C[C@@H](C(=O)N[C@H](C)c4ccccc4)N(C(=O)[C@@H](NC(=O)[C@H](C)NC)C(C)(C)C)C3)c2)CC1C(=O)N[C@H](C)c1ccccc1` (some centres unmarked) [Compound 148], the IC50 came out at 0.622 µM.

Turning to `CN[C@@H](C)C(=O)N[C@@H](CCC(=O)OC)C(=O)N1C[C@@H](NC(=O)c2cccc(C(=O)N[C@H]3C[C@@H](C(=O)N[C@@H]4CCCc5ccccc54)N(C(=O)[C@@H](NC(=O)[C@H](C)NC)C(C)(C)C)C3)c2)CC1C(=O)N[C@H](C)c1ccccc1` (some centres unmarked) [Compound 149], the IC50 amounted to 0.072 µM.

Take `CN[C@@H](C)C(=O)N[C@@H](CCC(=O)OC)C(=O)N1C[C@@H](NC(=O)c2cccc(C(=O)N[C@H]3C[C@@H](C(=O)N[C@H](C)c4ccccc4)N(C(=O)[C@@H](NC(=O)[C@H](C)NC)C(C)(C)C)C3)c2)CC1C(=O)N[C@H](C)c1ccccc1` (some centres unmarked) [Compound 150]: the IC50 is 0.121 µM. The same measure, in the same setting: next, `CN[C@@H](C)C(=O)NC(C(=O)N1C[C@@H](NC(=O)c2cccc(C(=O)NCCCC[C@H](NC(=O)[C@H](C)NC)C(=O)NC(C(=O)N3CCCCC3)C(C)(C)C)c2)C[C@H]1C(=O)N[C@@H]1CCCc2ccccc21)C(C)(C)C` (some centres unmarked) [Compound 151]: 0.297 µM; `CN[C@@H](C)C(=O)NC(C(=O)N1C[C@@H](NC(=O)c2cccc(C(=O)NCCCC[C@H](NC(=O)C(NC(C)[C@H](C)NC)C(C)(C)C)C(=O)N3CCCCC3)c2)C[C@H]1C(=O)N[C@@H]1CCCc2ccccc21)C(C)(C)C` (some centres unmarked) [Compound 152]: 0.447 µM. As for `CN[C@@H](C)C(=O)NC(C(=O)N1C[C@@H](NC(=O)c2cccc(C(=O)N[C@H]3C[C@@H](C(=O)N[C@H](C)c4ccccc4)N(C(=O)[C@H](CCC(=O)OC)NC(=O)[C@@H](N)CO)C3)c2)CC1C(=O)N[C@@H]1CCCc2ccccc21)C(C)(C)C` (some centres unmarked) [Compound 153], the IC50 is 27.6 µM. Same read-out and setting: next, `CN[C@@H](C)C(=O)NC(C(=O)N1C[C@@H](NC(=O)c2cccc(C(=O)N[C@H]3C[C@@H](C(=O)N[C@H](C)c4ccccc4)N(C(=O)[C@H](CCC(=O)OC)NC(=O)[C@H](CO)NC)C3)c2)CC1C(=O)N[C@@H]1CCCc2ccccc21)C(C)(C)C` (some centres unmarked) [Compound 154]: 3.6 µM; `CCC[C@H](NC(=O)[C@H](C)NC)C(=O)N1C[C@@H](NC(=O)c2cccc(C(=O)N[C@H]3C[C@@H](C(=O)N[C@@H]4CCCc5ccccc54)N(C(=O)[C@@H](NC(=O)[C@H](C)NC)C(C)(C)C)C3)c2)C[C@H]1C(=O)N1CCCC1` [Compound 155]: 0.467 µM; `CCC[C@H](NC(=O)[C@H](C)NC)C(=O)N1C[C@@H](NC(=O)c2cccc(C(=O)N[C@H]3C[C@@H](C(=O)N[C@@H]4CCCc5ccccc54)N(C(=O)[C@@H](NC(=O)[C@H](C)NC)C(C)(C)C)C3)c2)C[C@H]1C(=O)NC(C)(C)C` [Compound 156]: 0.083 µM. Take `CN[C@@H](C)C(=O)N[C@H](C(=O)N1C[C@@H](NC(=O)CC[C@@H](NC(=O)[C@H](NC(=O)[C@@H](C)NC)C(C)(C)C)C(=O)N[C@H]2CCCc3ccccc32)C[C@H]1C(=O)N[C@@H]1CCCc2ccccc21)C(C)(C)C` [Compound 157]: the IC50 was 0.03 µM. The same measure, in the same setting: next, `CN[C@@H](C)C(=O)N[C@H](C(=O)N1C[C@@H](NC(=O)CC[C@@H](NC(=O)[C@H](NC(=O)[C@@H](C)NC)C(C)C)C(=O)N[C@@H](C)C(C)C)C[C@H]1C(=O)N[C@@H]1CCCc2ccccc21)C(C)(C)C` [Compound 158]: greater than 30 µM; `CN[C@@H](C)C(=O)N[C@H](C(=O)N1C[C@@H](NC(=O)CC[C@@H](NC(=O)[C@H](NC(=O)[C@@H](C)NC)C(C)(C)C)C(=O)N[C@H]2CCCc3ccccc32)C[C@H]1C(=O)N[C@H](C)C(C)C)C(C)(C)C` [Compound 159]: 0.221 µM; `CN[C@@H](C)C(=O)N[C@H](C(=O)N1C[C@@H](NC(=O)CC[C@@H](NC(=O)[C@H](NC(=O)[C@@H](C)NC)C(C)C)C(=O)N[C@@H](C)C(C)C)C[C@H]1C(=O)N[C@H](C)C(C)C)C(C)(C)C` [Compound 160]: 29.4 µM.

The assay is the same for the next values; noted with them: HCC461; Tables 6-9; read-out: IC50 (μM) in cell viability assay in HCC461.
With `C[C@H](NC(=O)OCc1ccc([N+](=O)[O-])cc1)C(=O)NC(C(=O)N1C[C@@H](NC(=O)c2cccc(C(=O)N[C@H]3C[C@@H](C(=O)N[C@@H]4CCCc5ccccc54)N(C(=O)[C@@H](NC(=O)[C@H](C)NC(=O)OCc4ccc([N+](=O)[O-])cc4)C(C)(C)C)C3)c2)CC1C(=O)N[C@@H]1CCCc2ccccc21)C(C)(C)C` (some centres unmarked) [Compound 111], the IC50 was greater than 30 µM. Regarding `C[C@H](NC(=O)OCc1ccc([N+](=O)[O-])cc1)C(=O)NC(C(=O)N1C[C@@H](NC(=O)c2cc(C(=O)N[C@H]3C[C@@H](C(=O)N[C@@H]4CCCc5ccccc54)N(C(=O)[C@@H](NC(=O)[C@H](C)NC(=O)OCc4ccc([N+](=O)[O-])cc4)C(C)(C)C)C3)cc(S(=O)(=O)O)c2)CC1C(=O)N[C@@H]1CCCc2ccccc21)C(C)(C)C` (some centres unmarked) [Compound 112], the IC50 was greater than 30 µM.
